Measurements published in patent US11707539B2, “FAP-targeted radiopharmaceuticals and imaging agents, and uses related thereto” (Trustees of Tufts College, priority 2020, dated 2023).

Tested on: HEK-mFAP tumor-bearing mice
Assay: 68Ga biodistribution, gamma counting after 50 min uptake
Type: in vivo, mouse
Procedure: Part 2 Biodistribution. The aim of the study is to assess ^68Ga-6555 biodistribution in HEK-mFAP tumor-bearing mice. HEK-mFAP tumor-bearing mice were used for the study (N=3). The mice were injected with ˜8 MBq (7.3-8.5 MBq range) of ^68Ga-6555 (prepared as per Example 20; IV through the tail vein using a catheter mounted with a 30 Ga needle). After 50 min uptake time (injection was performed under anesthasia using isoflurane inhalant, and stayed under anesthesia for 50 min), the mice were euthanized (with CO2) and tissues were collected (blood via cardiac puncture, heart, lungs, liver, spleen, pancreas, stomach, small intestine, kidney, muscle, femur, bone, skin, brain, tumor). After excision, the tissue samples were counted for gallium-68 radioactivity on a Cobra-II Auto-Gamma counter (Packard Instruments, Meriden, CTA), weighted, and data were expressed as % injected dose per gram (% ID/g).
Conducted as per Example 24 using ^68Ga-6952 prepared as per Example 22.
Biodistribution. The mice were injected with ˜8.6 MBq (7.6-10.0 MBq range). The majority of activity was located in the tumor (average % ID/g of 8.8). The kidney has the next largest amount of activity (average % ID/g of 2.18). […]

SMILES: C[C@@H](NC(=O)c1ccc(CNC(=O)CN2CCN3CCN4CCN(CC2)CC(=O)[O][Ga]([O]C(=O)C3)[O]C(=O)C4)cc1)C(=O)N1CCC[C@H]1B(O)O [[^68Ga]-6555]
- uptake in all other selected tissues (50 min uptake time, IV): low level of uptake comparable to the muscle
- % ID/g Blood, AVERAGE (Blood, 50 min uptake after IV injection, average of N=3 mice): 0.57 % ID/g
- % ID/g Blood, mouse #002 (Blood, 50 min uptake, individual mouse #002): 0.67 % ID/g
- % ID/g Blood, mouse #005 (Blood, 50 min uptake, individual mouse #005): 0.38 % ID/g
- % ID/g Blood, mouse #009 (Blood, 50 min uptake, individual mouse #009): 0.64 % ID/g
- % ID/g Bone (femur), AVERAGE (Bone (femur), 50 min uptake after IV injection, average of N=3 mice): 0.33 % ID/g
- % ID/g Bone (femur), mouse #002 (Bone (femur), 50 min uptake, individual mouse #002): 0.31 % ID/g
- % ID/g Bone (femur), mouse #005 (Bone (femur), 50 min uptake, individual mouse #005): 0.50 % ID/g
- % ID/g Bone (femur), mouse #009 (Bone (femur), 50 min uptake, individual mouse #009): 0.20 % ID/g
- % ID/g Brain, AVERAGE (Brain, 50 min uptake after IV injection, average of N=3 mice): 0.07 % ID/g
- % ID/g Brain, mouse #002 (Brain, 50 min uptake, individual mouse #002): 0.03 % ID/g
- % ID/g Brain, mouse #005 (Brain, 50 min uptake, individual mouse #005): 0.07 % ID/g
- % ID/g Brain, mouse #009 (Brain, 50 min uptake, individual mouse #009): 0.10 % ID/g
- % ID/g Heart, AVERAGE (Heart, 50 min uptake after IV injection, average of N=3 mice): 0.34 % ID/g
- % ID/g Heart, mouse #002 (Heart, 50 min uptake, individual mouse #002): 0.41 % ID/g
- % ID/g Heart, mouse #005 (Heart, 50 min uptake, individual mouse #005): 0.17 % ID/g
- % ID/g Heart, mouse #009 (Heart, 50 min uptake, individual mouse #009): 0.43 % ID/g
- % ID/g Kidneys, AVERAGE (Kidneys, 50 min uptake after IV injection, average of N=3 mice): 1.37 % ID/g
- % ID/g Kidneys, mouse #002 (Kidneys, 50 min uptake, individual mouse #002): 1.50 % ID/g
- % ID/g Kidneys, mouse #005 (Kidneys, 50 min uptake, individual mouse #005): 1.03 % ID/g
- % ID/g Kidneys, mouse #009 (Kidneys, 50 min uptake, individual mouse #009): 1.58 % ID/g
- % ID/g Liver, AVERAGE (Liver, 50 min uptake after IV injection, average of N=3 mice): 1.01 % ID/g
- % ID/g Liver, mouse #002 (Liver, 50 min uptake, individual mouse #002): 1.00 % ID/g
- % ID/g Liver, mouse #005 (Liver, 50 min uptake, individual mouse #005): 0.79 % ID/g
- % ID/g Liver, mouse #009 (Liver, 50 min uptake, individual mouse #009): 1.23 % ID/g
- % ID/g Lungs, AVERAGE (Lungs, 50 min uptake after IV injection, average of N=3 mice): 0.56 % ID/g
- % ID/g Lungs, mouse #002 (Lungs, 50 min uptake, individual mouse #002): 0.62 % ID/g
- % ID/g Lungs, mouse #005 (Lungs, 50 min uptake, individual mouse #005): 0.39 % ID/g
- % ID/g Lungs, mouse #009 (Lungs, 50 min uptake, individual mouse #009): 0.67 % ID/g
- % ID/g Muscle, AVERAGE (Muscle, 50 min uptake after IV injection, average of N=3 mice): 0.74 % ID/g
- % ID/g Muscle, mouse #002 (Muscle, 50 min uptake, individual mouse #002): 0.09 % ID/g
- % ID/g Muscle, mouse #005 (Muscle, 50 min uptake, individual mouse #005): 0.21 % ID/g
- % ID/g Muscle, mouse #009 (Muscle, 50 min uptake, individual mouse #009): 1.92 % ID/g
- % ID/g Pancreas, AVERAGE (Pancreas, 50 min uptake after IV injection, average of N=3 mice): 0.92 % ID/g
- % ID/g Pancreas, mouse #002 (Pancreas, 50 min uptake, individual mouse #002): 1.41 % ID/g
- % ID/g Pancreas, mouse #005 (Pancreas, 50 min uptake, individual mouse #005): 0.93 % ID/g
- % ID/g Pancreas, mouse #009 (Pancreas, 50 min uptake, individual mouse #009): 0.42 % ID/g
- % ID/g Skin, AVERAGE (Skin, 50 min uptake after IV injection, average of N=3 mice): 0.28 % ID/g
- % ID/g Skin, mouse #002 (Skin, 50 min uptake, individual mouse #002): 0.31 % ID/g
- % ID/g Skin, mouse #005 (Skin, 50 min uptake, individual mouse #005): 0.27 % ID/g
- % ID/g Skin, mouse #009 (Skin, 50 min uptake, individual mouse #009): 0.25 % ID/g
- % ID/g Small intestine, AVERAGE (Small intestine, 50 min uptake after IV injection, average of N=3 mice): 0.31 % ID/g
- % ID/g Small intestine, mouse #002 (Small intestine, 50 min uptake, individual mouse #002): 0.39 % ID/g
- % ID/g Small intestine, mouse #005 (Small intestine, 50 min uptake, individual mouse #005): 0.19 % ID/g
- % ID/g Small intestine, mouse #009 (Small intestine, 50 min uptake, individual mouse #009): 0.35 % ID/g
- % ID/g Spleen, AVERAGE (Spleen, 50 min uptake after IV injection, average of N=3 mice): 0.77 % ID/g
- % ID/g Spleen, mouse #002 (Spleen, 50 min uptake, individual mouse #002): 0.23 % ID/g
- % ID/g Spleen, mouse #005 (Spleen, 50 min uptake, individual mouse #005): 0.74 % ID/g
- % ID/g Spleen, mouse #009 (Spleen, 50 min uptake, individual mouse #009): 1.34 % ID/g
- % ID/g Stomach, AVERAGE (Stomach, 50 min uptake after IV injection, average of N=3 mice): 0.20 % ID/g
- % ID/g Stomach, mouse #002 (Stomach, 50 min uptake, individual mouse #002): 0.07 % ID/g
- % ID/g Stomach, mouse #005 (Stomach, 50 min uptake, individual mouse #005): 0.21 % ID/g
- % ID/g Stomach, mouse #009 (Stomach, 50 min uptake, individual mouse #009): 0.32 % ID/g
- % ID/g Tumor, AVERAGE (Tumor (HEK-mFAP), 50 min uptake after IV injection, average of N=3 mice): 10.10 % ID/g
- % ID/g Tumor, mouse #002 (Tumor (HEK-mFAP), 50 min uptake, individual mouse #002): 10.01 % ID/g
- % ID/g Tumor, mouse #005 (Tumor (HEK-mFAP), 50 min uptake, individual mouse #005): 8.47 % ID/g
- % ID/g Tumor, mouse #009 (Tumor (HEK-mFAP), 50 min uptake, individual mouse #009): 11.83 % ID/g
- average % ID/g (kidney, 50 min uptake time, IV): 1.37 % ID/g
- average % ID/g (tumor, 50 min uptake time, IV): 10.1 % ID/g
